# Data: patent US20100279997A1, “ANALGESIC THAT BINDS FILAMIN A” (priority 2009, published 2010)
# Like-named read-outs stand apart in the source and are kept apart here.
# What was measured:
# [1] = Mouse hot-water tail-flick test; type: in vivo
# Experimental: The mouse “tail flick” test was used to assay the relative antinociceptive activity of compositions containing a compound to be assayed. This assay was substantially that disclosed by Xie et al., 2005 J. Neurosci 25:409-416.
# The mouse hot-water tail-flick test was performed by placing the distal third of the tail in a water bath maintained at 52° C. The latency until tail withdrawal from the bath was determined and compared among the treatments. A 10 second cutoff was used to avoid tissue damage. Data are converted to percentage of antinociception by the following formula: (response latency−baseline latency)/(cutoff−baseline latency)×100 to generate dose-response curves. […] Relative potency was determined as a ratio of the A50 values.
# To assess tolerance to the antinociceptive effect, the compound was administered twice daily for 7 days at an A90 dose (dose that results in a 90% antinociceptive effect in the 52° C. warm-water tail-flick test), and the tail-flick test was performed daily after the a.m. dose.
# μ opiate receptor (MOR) = target: T1, μ opiate receptor (MOR) (Rattus norvegicus, UniProt P33535); assay: MOR agonist activity, [35S]GTPγS binding assay using striatal membranes; type: biochemical; conditions: for [35S]GTPγS binding to Gαo, FLNA-binding compound as agonist 0.1 μM: 0.1 μM compound; for [35S]GTPγS binding to Gαo, FLNA-binding compound as agonist 0.1 μM / [35S]GTPγS binding to Gαo, FLNA-binding compound as agonist 1 μM: striatal membranes; for [35S]GTPγS binding to Gαo, FLNA-binding compound as agonist 1 μM + BFNA: 1 μM compound + 1 μM β-funaltrexamine; for [35S]GTPγS binding to Gαo, FLNA-binding compound as agonist 1 μM: 1 μM compound; for % DAMGO + BFNA: relative to DAMGO + BFNA; for % DAMGO (0.1 μM) / % DAMGO (1 μM): relative to DAMGO
# T1 construct: from tissue; host or cells: striatal tissue (membrane preparation)
# Experimental: To assess the μ opiate receptor (MOR) agonist activity of positive compounds from the FLNA screening, compounds were tested in a [^35S]GTPγS binding assay using striatal membranes.
# Striatal tissue was homogenized in 10 volumes of ice cold 25 mM HEPES buffer, pH 7.4, which contained 1 mM EGTA, 100 mM sucrose, 50 μg/ml leupeptin, 0.04 mM PMSF, 2 μg/ml soybean trypsin inhibitor and 0.2% 2-mercaptoethanol. The homogenates were centrifuged at 800×g for 5 minutes and the supernatants were centrifuged at 49,000×g for 20 minutes. The resulting pellets were suspended in 10 volume of reaction buffer, which contained 25 mM HEPES, pH 7.5, 100 mM NaCl, 50 μg/ml leupeptin, 2 μg/ml soybean trypsin inhibitor, 0.04 mM PMSF and 0.02% […].
# The resultant striatal membrane preparation (200 μg) was admixed and maintained (incubated) at 30° C. for 5 minutes in reaction buffer as above that additionally contained 1 mM MgCl2 and 0.5 nM [^35S]GTPγS (0.1 μCi/assay, PerkinElmer Life and Analytical Sciences) in a total volume of 250 μl and continued for 5 minutes in the absence or presence of 0.1-10 μM of an assayed compound of interest. The reaction was terminated by dilution with 750 μl of ice-cold reaction buffer that contained 20 mM MgCl2 and 1 mM EGTA and immediate centrifugation at 16,000×g for 5 minutes.
# The resulting pellet was solubilized by sonicating for 10 seconds in 0.5 ml of immunoprecipitation buffer containing 0.5% digitonin, 0.2% sodium cholate and 0.5% NP-40. Normal rabbit serum (1 μl) was added to 1 ml of lysate and incubated at 25° C. for 30 minutes. Nonspecific immune complexes were removed by incubation with 25 μl of protein A/G-conjugated agarose beads at 25° C. for 30 minutes followed by centrifugation at 5,000×g at 4° C. for 5 minutes. The supernatant was divided and separately incubated at 25° C. for 30 minutes with antibodies raised against Gao proteins (1:1,000 dilutions).
# The immunocomplexes so formed were collected by incubation at 25° C. for 30 minutes with 40 μl of agarose-conjugated protein A/G beads and centrifugation at 5,000×g at 4° C. for 5 minutes. The pellet was washed and suspended in buffer containing 50 mM Tris-HCl, pH 8.0, and 1% NP-40. The radioactivity in the suspension was determined by liquid scintillation spectrometry. […] DAMGO (H-Tyr-D-Ala-Gly-N-MePhe-Gly-OH; 1 or 10 μM) was used as a positive control.
# [2] = target: Bn-VAKGL pentapeptide of filamin A (FLNA) (Homo sapiens, UniProt P21333); assay: FITC-NLX-based FLNA screening assay (FLNA peptide binding assay)
# Experimental: The final assay volume is 100 μl.
# Compounds are tested in triplicate or quadruplicate.
# [3] = read-out: Percent inhibition of FITC-NLX binding, 0.1 μM, 0.1 μM compound, 10 nM FITC-NLX
# [4] = read-out: Percent inhibition of FITC-NLX binding, 0.01 μM
# [5] = read-out: Percent inhibition of FITC-NLX binding, 0.1 μM
# [6] = read-out: Percent inhibition of FITC-NLX binding, 1 μM
# [7] = read-out: Percent inhibition of FITC-NLX binding, 0.01 μM, 0.01 μM compound, 10 nM FITC-NLX
# [8] = read-out: Percent inhibition of FITC-NLX binding, 1 μM, 1 μM compound, 10 nM FITC-NLX
# T1 sequence (P33535 whole entry): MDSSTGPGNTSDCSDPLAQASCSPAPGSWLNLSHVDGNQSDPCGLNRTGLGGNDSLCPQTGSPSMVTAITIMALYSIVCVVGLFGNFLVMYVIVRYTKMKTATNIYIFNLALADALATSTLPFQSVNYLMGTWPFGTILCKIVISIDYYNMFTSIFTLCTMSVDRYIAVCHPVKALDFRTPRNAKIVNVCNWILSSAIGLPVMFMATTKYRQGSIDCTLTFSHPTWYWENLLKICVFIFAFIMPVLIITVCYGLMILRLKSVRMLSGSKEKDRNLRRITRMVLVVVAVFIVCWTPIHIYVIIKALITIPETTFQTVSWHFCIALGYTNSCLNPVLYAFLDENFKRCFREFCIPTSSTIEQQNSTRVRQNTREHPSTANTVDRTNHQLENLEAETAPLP
SMILES,"mean maximum antinociception ([1]; oral, 56 mg/kg)","[35S]GTPγS binding to Gαo, FLNA-binding compound as agonist 0.1 μM (μ opiate receptor (MOR)) [%]","[35S]GTPγS binding to Gαo, FLNA-binding compound as agonist 1 μM + BFNA (μ opiate receptor (MOR)) [%]","[35S]GTPγS binding to Gαo, FLNA-binding compound as agonist 1 μM (μ opiate receptor (MOR)) [%]","inhibition at 0.1 µM [2, 3] [%]",mean maximum antinociception ([1]; 32 mg/kg),time of maximum antinociception ([1]; 32 mg/kg) [min],"inhibition at 0.01 µM [2, 4] [%]","inhibition at 0.1 µM [2, 5] [%]","inhibition at 1 µM [2, 6] [%]",% DAMGO + BFNA (μ opiate receptor (MOR)) [%],% DAMGO (0.1 μM) (μ opiate receptor (MOR)) [%],% DAMGO (1 μM) (μ opiate receptor (MOR)) [%],"inhibition at 0.01 µM [2, 7] [%]","inhibition at 1 µM [2, 8] [%]","time of maximum antinociception (peak activity) ([1]; oral, 56 mg/kg)","time of maximum antinociception (peak activity) ([1]; oral, 56 mg/kg, listed as Morphine)","A50 (dose that resulted in a 50% antinociceptive effect), with 95% CI ([1]; orally administered, 52° C. tail flick)"
CC1CCC(C(C)C)C(OCC(O)CN2CCN(CCN3CCOCC3)CC2)C1 (stereo not shown) [Compound A0011],about 38%,236.3,47.0,287.5,–,–,–,–,–,–,–,–,–,–,–,–,–,–
CC1CCCC(OCC(O)CN2CC(C)OC(C)C2)C1 (stereo not shown) [Compound A0021],about 25%,133.3,12.1,275.3,–,–,–,–,–,–,–,–,–,–,–,–,–,–
CC1CN(CC(O)COc2ccccc2C(C)C)CC(C)O1 (stereo not shown) [Compound A0029],–,173.8,22.3,206.5,44.4,–,–,–,–,–,–,–,–,–,–,–,–,–
CC1CN(CC(O)COc2ccc(Br)c(F)c2)CC(C)O1 (stereo not shown) [Compound A0041],–,212.7,50.6,283.6,–,about 12%,10 to 15,–,–,–,–,–,–,–,–,–,–,–
CC1CN(CC(O)COc2cccc(F)c2)CC(C)O1 (stereo not shown) [Compound A0049],about 45%,232.3,107.1,370.3,–,–,–,–,–,–,–,–,–,–,–,–,–,–
OC(CN1CCc2ccccc2C1)OCc1ccc(Br)c(F)c1 (stereo not shown) [Compound A0057],–,124.2,44.8,192.1,–,–,–,29.1,37,43.4,112.3,79.6,83.3,–,–,–,–,–
OC(COc1ccc(Br)c(F)c1)CN1CCN(CCN2CCOCC2)CC1 (stereo not shown) [Compound A0063],–,122.8,310,245.8,–,–,–,21.2,31,38.8,77.7,78.7,106.6,–,–,–,–,–
CC1CCC(C(C)C)C(OCC(O)CN2CCOc3ccccc32)C1 (stereo not shown) [Compound A0066],–,151.9,59.2,195.6,45.4,–,–,–,–,–,171.6,88.3,89.0,36.7,53.7,–,–,–
COc1ccc(OCC(O)CN2CCCc3ccccc32)cc1 (stereo not shown) [Compound A0067],–,170.8,33.9,254.4,39.1,–,–,–,–,–,98.3,99.2,115.8,32.7,44.3,–,–,–
COc1ccc(OCC(O)CN2CCc3ccccc32)cc1 (stereo not shown) [Compound A0069],–,–,–,–,–,–,–,32,40.4,46.1,–,–,–,–,–,–,–,–
COc1ccc(OCC(O)CN2CCc3cc4c(c(OC)c3C2)OCO4)cc1 (stereo not shown) [Compound A0070],–,128.6,80.3,195.3,39.1,–,–,–,–,–,232.8,74.7,88.9,32.9,41.7,–,–,–
COc1ccc(OCC(O)CN2CCC(=O)CC2)cc1 (stereo not shown) [Compound A0071],–,225.7,239.4,310.9,46.8,–,–,–,–,–,1088.2,128.2,122.9,44.7,53.9,–,–,–
CC1CCC(C(C)C)C(OCC(O)CN2CCN(Cc3ccccc3)CC2)C1 (stereo not shown) [Compound A0072],–,254.3,171.8,305.1,–,–,–,45.5,52.2,59.4,318.7,126.8,97.2,–,–,–,–,–
COc1ccc(OCC(O)CN2CCN(Cc3ccccc3)CC2)cc1 (stereo not shown) [Compound A0073],–,201.7,185.8,325.7,–,–,–,47.3,54.8,59.7,344.7,100.5,103.7,–,–,–,–,–
"CN1CC[C@]23c4c5ccc(O)c4O[C@H]2[C@@H](O)C=C[C@H]3[C@H]1C5 [morphine, reference compound]",about 43%,–,–,–,–,–,–,–,–,–,–,–,–,–,–,about 20 minutes,twenty,61.8 (52.4-72.9) mg/kg
